In patent US11541065B2, “Compositions and methods for treating brain injury” (UNM RAINFOREST INNOVATIONS, priority 2018, dated 2023):

Columns and labels:
IκB = IκB degradation in rat neuronal cultures (immunoblot); format: cell-based; conditions: rat neurons, homocysteine 50 μM, four hours, alone
Experimental: Rat and mice neuronal cultures were washed with PBS (pH 7.4), containing sodium pyrophosphate and sodium vanadate as phosphatase inhibitors, and harvested in SDS sample buffer (Laemmli, 1970, Nature 227:680-685). Equal protein from total cell lysates, estimated using BCA kit, was resolved by SDS-PAGE (7.5%) followed by western blotting on PVDF membranes. Immunoblot analysis was performed by first blocking with 5% non-fat dry milk for 1 h at room temperature followed by incubation with either COX2 immunoblot analysis (Poddar and Paul, 2009, J Neurochem 110:1095-1106) as described in each experiment. All primary antibodies and horseradish peroxidase conjugated secondary antibodies were used according to manufacturer's recommendations. Signals from immune complexes in the blots were developed using West Pico supersignal chemiluminescence reagents and then captured on X-ray films. Densitometric analysis of the images was performed using the NIH Image J software.

[1] = Total plasma homocysteine after osmotic pump implantation, rats (HPLC); format: in vivo; conditions: male, Wistar, rat, sc, 200 mM solution (2 ml osmotic pump, flow rate 10 μl/hr), subcutaneous osmotic pump with 200 mM L-homocysteine
Experimental: (§1) L-homocysteine (200 mM) was freshly prepared by alkali hydrolysis of L-homocysteine thiolactone hydrochloride followed by neutralization, and maintained in 0.02 mM of N-Tris(hydroxymethyl)methyl-2-aminoethanesulfonic acid buffer pH 7.4 as previously described (Poddar et al., 2001, Circulation, 103:2717-2723). Osmotic pumps (Alzet, 2ML1, flow rate 10 μl/hr; Durect Corp., Cupertino, Calif.) containing either 2 ml of freshly prepared 200 mM L-homocysteine (for hyperhomocysteinemia) or normal saline (for control) were surgically implanted subcutaneously on the back and posterior to the scapulae of male Wistar rats under anesthesia (2% isoflurane in medical grade oxygen). The incision was closed after implantation and the rats were allowed to recover in their cage. For both WT and GluN2A-KO mice, osmotic pumps (Alzet, 2001, flow rate 1 μl/hr; Durect Corp., Cupertino, Calif.) containing either 200 μl of freshly prepared 200 mM L-homocysteine (for hyperhomocysteinemia) or normal saline (for control) were implanted similarly.
(§2) Blood was obtained from rats (retro-orbital) and mice (cardiac puncture) under anesthesia with 2% isoflurane in medical grade oxygen, before installation of osmotic pumps (0 day) and at various time points after installation of osmotic pumps (rats: day 3, day 5, and day 7; mice: day 3 and day 5). Blood was collected in standardized VACUTAINER venous blood collection EDTA-tubes (ThermoFisher Scientific, Inc., Waltham, Mass.) and centrifuged at 3,500 rpm for 15 minutes. The plasma obtained was analyzed for total plasma homocysteine levels using high performance liquid chromatography with post-column fluorescence detection as previously described (Gilfix et al., 1997, Clin Chem 43:687-688; Jacobsen et al., 1994, Clin Chem 40:873-881; Miller et al., 2013, Am J Clin Nutr 97:827-834).

COX2 = COX2 protein level in WT and GluN2A-KO mouse neuronal cultures (immunoblot); format: cell-based, mice; conditions: L-homocysteine 50 μM, four hours
Experimental: Equal protein from total cell lysates obtained from rat and mice neuronal cultures were resolved in 7.5% SDS-PAGE, and subjected to immunoblotting procedure as described earlier (Poddar and Paul, 2009, J Neurochem 110:1095-1106). Blots were analyzed with antibodies as described in each experiment. All primary antibodies (anti-COX2, anti-B-tubulin) and secondary-horse radish peroxidase conjugated antibody concentrations were used according to recommendations provided by the manufacturer. Signals from immune complexes in the blots were developed using West Pico supersignal chemiluminescence reagents and then captured on X-ray films. Densitometric analysis of the images was performed using the Image J software.
Rat and mice neuronal cultures were washed with PBS (pH 7.4), containing sodium pyrophosphate and sodium vanadate as phosphatase inhibitors, and harvested in SDS sample buffer (Laemmli, 1970, Nature 227:680-685). Equal protein from total cell lysates, estimated using BCA kit, was resolved by SDS-PAGE (7.5%) followed by western blotting on PVDF membranes. Immunoblot analysis was performed by first blocking with 5% non-fat dry milk for 1 h at room temperature followed by incubation with either COX2 immunoblot analysis (Poddar and Paul, 2009, J Neurochem 110:1095-1106) as described in each experiment. […]

[2] = Total plasma homocysteine after osmotic pump implantation, mice (HPLC); format: in vivo, WT and GluN2A-KO mice; conditions: mouse, subcutaneous, 200 mM solution (200 μl osmotic pump, flow rate 1 μl/hr), osmotic pump with 200 mM L-homocysteine; for concentration at 5 day: day 5
Experimental: as §1, §2

[3] = test system: hyperhomocysteinemic rats subjected to MCAO; assay: Cylinder test after MCAO; format: in vivo, male Wistar rats; conditions: HHcy rats, day 8 after MCAO, NVP-AAM077 1.2 mg/kg; untreated HHcy 24.24±2.37%
Experimental: (§3) All rats were subjected to a battery of behavioral tests on day 7 (CatWalk), day 8 (cylinder and rotarod tests) and day 9 (adhesive test) after MCAO to evaluate normal gait, motor coordination and sensory motor functions. Habituation and training (3 days) was performed for one week before MCAO. The first two trainings days were before osmotic pump implantation and the third training day was after pump implantation. An experienced observer blinded to the experimental conditions evaluated all behavioral parameters.
Cylinder test: Control, hyperhomocysteinemic and NVP-AAM077 treated hyperhomocysteinemic rats were subjected to cylinder test to assess the post-stroke asymmetry in fore-limb use (Balkaya, 2013, J Cereb Blood Flow Metab 33:330-338). The rats were placed individually inside a transparent plexiglass cylinder (diameter 20 cm, height 45 cm). A vertical exploration movement with either the left or right forelimb along the wall was scored as contact of each paw with the glass wall for a total period of 2 minutes. Simultaneous contact by both paws was scored separately. Two trials (10 min rest between trials) were recorded and the percentage use of the affected fore limb was calculated (Liu et al., 2013, Behav Brain Res 257:166-177; Schaar et al., 2010, Exp Transl Stroke Med 2:13).

[4] = test system: hyperhomocysteinemic rats subjected to MCAO; assay: Adhesive removal test after MCAO; format: in vivo, male Wistar rats; conditions: HHcy rats, 9 days after MCAO, NVP-AAM077 1.2 mg/kg
Experimental: as §3
Adhesive removal test: Sensorimotor deficits following stroke was assessed by performing the adhesive removal test in control, hyperhomocysteinemic and NVP-AAM077 treated hyperhomocysteinemic rats. A small adhesive patch (7 mm×3 mm) was applied to the contralateral forepaw of each rat with equal pressure and the time taken to notice the presence of the patch (time to contact) and to remove it (time to remove) was recorded (Bouet et al., 2009, Nat Protoc 4:1560-1564). The time taken to notice the patch was recorded from the moment of placing the patch until the paw was shaken or touched by mouth. The time taken to remove the patch was recorded from the moment the mouth touched the paw to the time the patch was removed. The trial ended after the adhesive patch was removed or a maximum latency of three minutes. […]

SMILES	cellular level of IκB (IκB)	concentration at 3 day ([1]; day 3, basal 8.8±0.76 μM, read-out: total plasma homocysteine level)	concentration at 5 day ([1]; day 5, read-out: total plasma homocysteine level)	concentration at 7 day ([1]; day 7, read-out: total plasma homocysteine level)	COX2 protein level (COX2; GluN2A-KO mice cultures)	COX2 protein level (COX2; WT mice cultures)	concentration at 3 day ([2]; GluN2A-KO mice, day 3, day 0 5.72±0.33 μM)	concentration at 5 day ([2]; GluN2A-KO mice)	concentration at 3 day ([2]; WT mice, day 3, day 0 6.6±0.73 μM)	concentration at 5 day ([2]; WT mice)	spontaneous usage of the affected forepaw [3]	time to contact adhesive tape, contralateral forepaw ([4]; untreated HHcy 76.82±5.45 s)	time to remove adhesive tape, contralateral forepaw ([4]; untreated HHcy 127.86±7.29 s)
N[C@@H](CCS)C(=O)O [L-homocysteine]	significant decrease in the cellular level of IκB	23.2 ± 0.52 µM	23.6 ± 0.57 µM	20.5 ± 0.88 µM	fails to augment COX2 protein expression	leads to increase in COX2 protein level	18.5 ± 2.55 µM	15.9 ± 2.09 µM	19 ± 1.68 µM	16.7 ± 1.73 µM	–	–	–
C[C@H](NC(c1cccc2[nH]c(=O)c(=O)[nH]c12)P(=O)(O)O)c1ccc(Br)cc1 (stereo partly drawn) [NVP-AAM077, ({[(1S)-1-(4-bromophenyl)ethyl]amino}-(2,3-dioxo-1,4-dihydroquinoxalin-5-yl)methyl)phosphonic acid]	–	–	–	–	–	–	–	–	–	–	40.51±1.86%	31.18 ± 5.68 s	44.24 ± 7.59 s
